Legend:
PIM3 = PIM3 (Homo sapiens, UniProt Q86V86); assay: PIM3 AlphaScreen kinase assay; format: biochemical; settings: 1 mM ATP; read-out: Mean (SD) IC50
Method: AlphaScreen assay. Reactions (20 μl) were carried out in white 384-well polystyrene plates (Greiner Bio-One, Kremsmünster, Austria) dotted with 0.8 μl of the compound in dimethylsulfoxide in the assay buffer (50 mM Tris, pH 7.5, 0.01% Tween-20, 5 mM MgCl2, 0.01% bovine serum albumin [BSA], 5 mM dithiothreitol) containing 0.05 μM Biotin-labeled Bcl-2–associated death promoter protein peptide substrate (AnaSpec, Fremont, California), 1 mM ATP, and 2.5 pM PIM1 (Invitrogen, Thermo Fisher Scientific, Waltham, Massachusetts), or 1.25 pM PIM3 (Millipore, Billerica, Massachusetts) enzyme. After 1 hour at 25°C, the reactions were stopped with 10 μl STOP Buffer (150 mM Tris, pH 7.5, 150 mM NaCl, 75 mM ethylenediaminetetraacetic acid [EDTA], 0.01% Tween-20, 0.3% BSA) supplemented with Phospho-Bad (Ser112) antibody (Cell Signaling Technology, Danvers, Massachusetts) diluted 666-fold, and Streptavidin donor beads (PerkinElmer, Waltham, Massachusetts), along with Protein-A acceptor beads (PerkinElmer, Akron, Ohio), at 15 μg/ml each. Supplementation of STOP buffer with beads and stopping the reactions were carried out under reduced light. […] After the reactions were stopped, the plates were incubated for 1 hour in the dark at room temperature and then read on a PHERAstar FS plate reader (BMG Labtech, Cary, North Carolina) under reduced light.

AKT1 = AKT1 (Homo sapiens, UniProt P31749); assay: Kinase selectivity panel; format: biochemical; settings: [ATP] = 1 mM
CDK2 = CDK2 (Homo sapiens, UniProt P24941); assay: Kinase selectivity panel; format: biochemical; settings: [ATP] = 1 mM
DYRK2 = DYRK2 (Homo sapiens, UniProt Q92630); assay: Kinase selectivity panel; format: biochemical; settings: [ATP] = 1 mM
Sequence of DYRK2 (Q92630 whole entry): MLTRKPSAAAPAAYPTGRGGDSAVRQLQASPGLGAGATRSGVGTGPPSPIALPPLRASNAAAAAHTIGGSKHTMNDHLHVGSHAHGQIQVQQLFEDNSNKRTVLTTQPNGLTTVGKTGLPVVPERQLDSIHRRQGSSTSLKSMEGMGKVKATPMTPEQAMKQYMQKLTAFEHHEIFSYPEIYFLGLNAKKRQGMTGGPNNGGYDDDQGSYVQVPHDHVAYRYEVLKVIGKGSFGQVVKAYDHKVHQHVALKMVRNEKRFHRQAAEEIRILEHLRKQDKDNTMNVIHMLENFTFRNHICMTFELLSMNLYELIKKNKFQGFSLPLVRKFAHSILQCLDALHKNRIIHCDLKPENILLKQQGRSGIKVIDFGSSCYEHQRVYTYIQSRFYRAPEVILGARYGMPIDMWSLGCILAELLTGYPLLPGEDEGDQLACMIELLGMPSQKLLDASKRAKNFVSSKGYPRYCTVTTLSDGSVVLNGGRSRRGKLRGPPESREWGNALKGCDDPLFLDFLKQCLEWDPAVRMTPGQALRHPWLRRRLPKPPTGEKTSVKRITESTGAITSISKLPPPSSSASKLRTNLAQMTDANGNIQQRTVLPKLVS

EPHB4 = EPHB4 (Homo sapiens, UniProt P54760); assay: Kinase selectivity panel; format: biochemical; settings: [ATP] = 1 mM
HIPK3 = HIPK3 (Homo sapiens, UniProt Q9H422); assay: Kinase selectivity panel; format: biochemical; settings: [ATP] = 1 mM
Sequence of HIPK3 (Q9H422 whole entry): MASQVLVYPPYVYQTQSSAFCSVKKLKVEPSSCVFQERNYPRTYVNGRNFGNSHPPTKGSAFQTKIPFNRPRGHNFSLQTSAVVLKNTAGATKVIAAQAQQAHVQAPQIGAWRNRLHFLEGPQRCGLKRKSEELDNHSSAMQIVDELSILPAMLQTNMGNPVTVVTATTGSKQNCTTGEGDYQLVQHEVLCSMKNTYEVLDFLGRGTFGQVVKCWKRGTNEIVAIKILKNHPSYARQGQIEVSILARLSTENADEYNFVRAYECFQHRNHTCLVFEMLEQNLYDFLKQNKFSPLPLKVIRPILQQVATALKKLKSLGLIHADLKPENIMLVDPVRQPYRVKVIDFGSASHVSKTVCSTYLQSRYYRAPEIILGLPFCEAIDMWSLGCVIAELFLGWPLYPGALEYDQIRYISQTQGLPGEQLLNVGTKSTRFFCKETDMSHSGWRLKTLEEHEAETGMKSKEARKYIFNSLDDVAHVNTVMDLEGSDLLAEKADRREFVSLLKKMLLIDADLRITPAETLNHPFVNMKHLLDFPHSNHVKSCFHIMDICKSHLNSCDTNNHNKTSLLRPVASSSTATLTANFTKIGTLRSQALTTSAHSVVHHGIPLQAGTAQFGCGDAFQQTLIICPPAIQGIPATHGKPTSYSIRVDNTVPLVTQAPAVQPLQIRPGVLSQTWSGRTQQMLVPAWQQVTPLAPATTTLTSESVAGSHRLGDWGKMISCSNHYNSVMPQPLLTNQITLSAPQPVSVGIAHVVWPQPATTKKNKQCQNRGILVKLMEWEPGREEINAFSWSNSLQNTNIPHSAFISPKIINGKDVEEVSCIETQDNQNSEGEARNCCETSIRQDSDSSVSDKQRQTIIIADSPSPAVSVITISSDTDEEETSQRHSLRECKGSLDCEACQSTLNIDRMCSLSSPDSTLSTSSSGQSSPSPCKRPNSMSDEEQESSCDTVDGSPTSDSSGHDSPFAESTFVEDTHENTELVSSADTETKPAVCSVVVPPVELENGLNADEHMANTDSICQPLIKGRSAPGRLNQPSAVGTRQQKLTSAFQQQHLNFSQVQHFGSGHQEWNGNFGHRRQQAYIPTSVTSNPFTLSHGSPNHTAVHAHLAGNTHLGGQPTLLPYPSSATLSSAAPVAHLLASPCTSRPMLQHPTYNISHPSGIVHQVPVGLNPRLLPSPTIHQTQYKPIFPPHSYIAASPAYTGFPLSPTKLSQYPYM

IGF1R = IGF1R (Homo sapiens, UniProt P08069); assay: Kinase selectivity panel; format: biochemical; settings: [ATP] = 1 mM
Sequence of IGF1R (P08069 31-1367): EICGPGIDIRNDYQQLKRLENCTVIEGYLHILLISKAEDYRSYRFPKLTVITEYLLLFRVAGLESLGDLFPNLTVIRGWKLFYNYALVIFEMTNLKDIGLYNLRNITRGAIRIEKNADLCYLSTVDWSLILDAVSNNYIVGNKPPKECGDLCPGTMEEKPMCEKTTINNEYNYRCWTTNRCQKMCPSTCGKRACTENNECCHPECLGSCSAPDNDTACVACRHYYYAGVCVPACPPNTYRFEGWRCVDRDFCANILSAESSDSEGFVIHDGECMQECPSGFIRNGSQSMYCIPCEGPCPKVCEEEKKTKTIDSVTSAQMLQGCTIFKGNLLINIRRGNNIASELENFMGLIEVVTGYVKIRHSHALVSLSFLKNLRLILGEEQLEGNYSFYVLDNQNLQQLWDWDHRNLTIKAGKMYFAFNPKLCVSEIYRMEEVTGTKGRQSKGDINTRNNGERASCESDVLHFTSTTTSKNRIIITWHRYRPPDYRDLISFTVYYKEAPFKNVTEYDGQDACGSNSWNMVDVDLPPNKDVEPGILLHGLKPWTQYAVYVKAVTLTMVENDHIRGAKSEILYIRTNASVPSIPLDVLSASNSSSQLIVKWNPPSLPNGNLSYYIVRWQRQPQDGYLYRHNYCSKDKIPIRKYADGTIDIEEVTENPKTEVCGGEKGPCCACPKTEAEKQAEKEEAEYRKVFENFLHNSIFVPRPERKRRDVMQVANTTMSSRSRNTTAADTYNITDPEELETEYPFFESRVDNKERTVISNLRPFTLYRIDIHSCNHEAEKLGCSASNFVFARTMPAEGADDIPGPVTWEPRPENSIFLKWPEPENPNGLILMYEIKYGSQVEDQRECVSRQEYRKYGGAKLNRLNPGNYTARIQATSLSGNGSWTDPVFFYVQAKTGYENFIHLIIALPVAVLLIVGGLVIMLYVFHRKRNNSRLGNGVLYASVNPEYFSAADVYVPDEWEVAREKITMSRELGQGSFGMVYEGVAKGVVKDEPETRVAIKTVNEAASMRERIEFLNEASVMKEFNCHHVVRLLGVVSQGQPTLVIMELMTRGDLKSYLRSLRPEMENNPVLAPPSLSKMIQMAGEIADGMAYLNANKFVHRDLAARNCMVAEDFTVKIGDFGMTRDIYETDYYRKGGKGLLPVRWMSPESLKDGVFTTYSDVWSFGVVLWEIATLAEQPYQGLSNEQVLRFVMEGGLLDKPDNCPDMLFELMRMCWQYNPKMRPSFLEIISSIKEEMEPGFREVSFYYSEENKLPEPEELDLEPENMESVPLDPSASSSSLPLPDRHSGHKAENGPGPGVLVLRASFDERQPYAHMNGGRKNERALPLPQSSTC

KDR = KDR (Homo sapiens, UniProt P35968); assay: Kinase selectivity panel; format: biochemical; settings: [ATP] = 1 mM
LCK = LCK (Homo sapiens, UniProt P06239); assay: Kinase selectivity panel; format: biochemical; settings: [ATP] = 1 mM
MAPKAPK2 = MAPKAPK2 (Homo sapiens, UniProt P49137); assay: Kinase selectivity panel; format: biochemical; settings: [ATP] = 1 mM
Sequence of MAPKAPK2 (P49137 whole entry): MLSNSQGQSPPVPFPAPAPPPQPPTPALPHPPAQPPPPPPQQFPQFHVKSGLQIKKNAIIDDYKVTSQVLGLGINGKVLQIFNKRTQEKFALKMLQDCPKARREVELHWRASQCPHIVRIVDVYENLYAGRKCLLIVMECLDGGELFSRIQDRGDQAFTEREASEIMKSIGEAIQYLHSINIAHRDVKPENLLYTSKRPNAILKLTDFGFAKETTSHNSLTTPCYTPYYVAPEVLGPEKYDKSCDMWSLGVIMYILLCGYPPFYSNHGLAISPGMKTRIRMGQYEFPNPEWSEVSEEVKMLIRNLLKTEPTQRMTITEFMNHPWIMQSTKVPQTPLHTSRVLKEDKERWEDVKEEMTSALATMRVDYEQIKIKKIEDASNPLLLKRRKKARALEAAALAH

SGK1 = SGK1 (Homo sapiens, UniProt O00141); assay: Kinase selectivity panel; format: biochemical; settings: [ATP] = 1 mM
Sequence of SGK1 (O00141 whole entry, species assumed): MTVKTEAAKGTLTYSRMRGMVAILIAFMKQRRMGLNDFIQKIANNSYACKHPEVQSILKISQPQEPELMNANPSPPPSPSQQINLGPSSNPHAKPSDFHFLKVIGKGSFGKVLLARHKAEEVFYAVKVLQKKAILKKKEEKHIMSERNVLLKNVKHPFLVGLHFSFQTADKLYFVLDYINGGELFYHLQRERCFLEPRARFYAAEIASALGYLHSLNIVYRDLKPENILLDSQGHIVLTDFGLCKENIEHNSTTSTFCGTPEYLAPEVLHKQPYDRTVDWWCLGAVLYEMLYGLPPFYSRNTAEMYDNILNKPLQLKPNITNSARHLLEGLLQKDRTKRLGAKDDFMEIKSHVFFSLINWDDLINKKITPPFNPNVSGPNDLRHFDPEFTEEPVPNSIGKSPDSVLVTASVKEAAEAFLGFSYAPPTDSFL

SRC = SRC (Homo sapiens, UniProt P12931); assay: Kinase selectivity panel; format: biochemical; settings: [ATP] = 1 mM
TGFBR1 = TGFBR1 (Homo sapiens, UniProt P36897); assay: Kinase selectivity panel; format: biochemical; settings: [ATP] = 1 mM
ZAP70 = ZAP70 (Homo sapiens, UniProt P43403); assay: Kinase selectivity panel; format: biochemical; settings: [ATP] = 1 mM
Sequence of ZAP70 (P43403 whole entry, species assumed): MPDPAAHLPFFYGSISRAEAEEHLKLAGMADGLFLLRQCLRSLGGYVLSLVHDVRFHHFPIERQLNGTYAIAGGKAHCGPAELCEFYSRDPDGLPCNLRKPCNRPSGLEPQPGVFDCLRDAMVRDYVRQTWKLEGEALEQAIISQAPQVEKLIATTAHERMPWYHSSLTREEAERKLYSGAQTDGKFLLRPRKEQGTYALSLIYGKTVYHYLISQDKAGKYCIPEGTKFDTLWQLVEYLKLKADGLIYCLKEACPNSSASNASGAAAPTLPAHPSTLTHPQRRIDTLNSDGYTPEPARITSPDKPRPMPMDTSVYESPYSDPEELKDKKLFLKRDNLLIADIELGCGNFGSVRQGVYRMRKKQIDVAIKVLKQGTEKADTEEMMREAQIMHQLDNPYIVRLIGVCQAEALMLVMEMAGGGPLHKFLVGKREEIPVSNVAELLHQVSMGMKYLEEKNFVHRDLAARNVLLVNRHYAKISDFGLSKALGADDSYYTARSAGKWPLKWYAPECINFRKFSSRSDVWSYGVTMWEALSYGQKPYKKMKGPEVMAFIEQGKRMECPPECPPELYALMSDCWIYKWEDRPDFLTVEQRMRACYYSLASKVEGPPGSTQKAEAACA

KG-1 = assay: Cell proliferation assay ([3H]-thymidine); format: cell-based, human; settings: KG-1 (AML)
Method: (§1) The antiproliferative effects of INCB053914 on hematologic tumor cells were investigated using assays described in the Supporting Information (S2 File).
(§2) Cell proliferation assays. […] After 3 to 4 days, [^3H]-thymidine (1 μCi/well) (PerkinElmer) in PBS (10 μl) was added to the cell culture for an additional 12 hours. The incorporated radioactivity was separated by filtration with water through GF/B filters (Packard Bioscience, Meriden, Connecticut) and measured by liquid scintillation counting with a TopCount (Packard Bioscience).

MOLM-16 = assay: Cell proliferation assay ([3H]-thymidine); format: cell-based, human; settings: MOLM-16 (AML)
Method: as §1, §2

[1] = test system: phosphorylation of BAD in KMS-12-BM cells; assay: pBAD S112 ELISA in cells; format: cell-based; settings: Homo sapiens, 2.5 hours, RPMI + 10% FBS, read-out: mean (± SD) IC50, pBAD inhibition
Method: (§3) The effect of INCB053914 on the level of pBAD was further investigated in KMS-12-BM and MOLM-16 cells, which were suspended in RPMI + 10% fetal bovine serum (FBS) and seeded into 96-well v-bottom polypropylene plates (Greiner, Munroe, North Carolina; 4 × 10^5 cells/well/100 μl) in the presence of 5 μl INCB053914 at a final concentration range of 0.1 nM to 1,000 nM. After 2.5 hours at 37°C and 5% CO2, the cells were lysed in 100 μl of cell extraction buffer (Cell Signaling Technology) containing phenylmethane sulfonyl fluoride, Halt^TM phosphatase, and protease inhibitors (Thermo Fisher Scientific, Waltham, Massachusetts; Calbiochem). The concentration of pBAD protein in the cell lysates was quantified using a Human pBAD S112 ELISA Kit (Cell Signaling Technology).

[2] = test system: phosphorylation of BAD in MOLM-16 cells; assay: pBAD S112 ELISA in cells; format: cell-based; settings: Homo sapiens, MOLM16, 2.5 hours, RPMI + 10% FBS, read-out: mean (± SD) IC50, pBAD inhibition
Method: as §3

[3] = test system: PIM2 expression in KG-1a, Pfeiffer and KMS-12-PE cells; assay: Western blot of PIM2 expression in cell lines; format: cell-based; settings: KG-1a (AML)
[4] = test system: BAD phosphorylation in KMS-12-BM tumors; assay: Intratumoral pBAD inhibition in xenograft-bearing mice; format: in vivo; settings: Mus musculus, single oral dose, 4 hours post dose, read-out: IC50, inhibition of BAD phosphorylation relative to vehicle in tumors
Method: (§4) Human MOLM-16 (AML) and KMS-12-BM (MM) xenografts were established in SCID mice. For the evaluation of intratumoral pBAD inhibition, tumor-bearing mice (three to eight mice/group) were treated with a single oral dose of INCB053914 at doses ranging from 0 (vehicle) to 100 mg/kg. In one representative experiment, mice were sacrificed 4 hours after a single dose, and tumors were collected to analyze the levels of pBAD relative to those of vehicle-administered controls. Plasma samples were collected for pharmacokinetic analysis.

[5] = test system: BAD phosphorylation in MOLM-16 tumors; assay: as above; format: in vivo; settings: Mus musculus, MOLM16, single oral dose, 4 hours post dose, read-out: IC50, inhibition of BAD phosphorylation relative to vehicle in tumors
Method: as §4

[6] = test system: BAD phosphorylation in whole blood spiked with MOLM-16 cells; assay: BAD phosphorylation in whole blood samples spiked with tumor cells, treated ex vivo; format: cell-based; settings: MOLM16
INA-6 cells = assay: STAT3(Y705) and PIM kinase substrate phosphorylation in INA-6 cells in culture; format: cell-based; settings: INA-6 cells treated for 24 hours in culture
Method: Fig S1. Effects of INCB053914 on STAT3(Y705) and PIM kinase substrate phosphorylation in INA-6 cells treated for 24 hours in culture.

Question: For `C[C@H]1CN(c2c(NC(=O)c3ccc(F)c(-c4c(F)cccc4F)n3)cnc3c2CC[C@H]3O)C[C@@H](N)[C@@H]1O.O=P(O)(O)O` [INCB053914, N-((R)-4-((3R,4R,5S)-3-amino-4-hydroxy-5-methylpiperidin-1-yl)-7-hydroxy-6,7-dihydro-5H-cyclopenta[b]pyridin-3-yl)-6-(2,6-difluorophenyl)-5-fluoropicolinamide phosphate], which IC50 (PIM3) is on record?
Answer: 0.12 nM

Question: What about the IC50 (AKT1) of the same molecule?
Answer: > 20000 nM

Question: What about the IC50 (CDK2) of the same molecule?
Answer: > 20000 nM

Question: What about the IC50 (DYRK2) of the same molecule?
Answer: > 20000 nM

Question: And the IC50 (EPHB4)?
Answer: > 20000 nM

Question: And the IC50 (HIPK3)?
Answer: > 20000 nM

Question: And the IC50 (IGF1R)?
Answer: > 20000 nM

Question: What about the IC50 (KDR) of the same molecule?
Answer: > 20000 nM

Question: And the IC50 (LCK)?
Answer: > 20000 nM

Question: And the IC50 (MAPKAPK2)?
Answer: > 20000 nM

Question: And the IC50 (SGK1)?
Answer: > 20000 nM

Question: What about the IC50 (SRC) of the same molecule?
Answer: > 20000 nM

Question: And the IC50 (TGFBR1)?
Answer: > 20000 nM

Question: What about the IC50 (ZAP70) of the same molecule?
Answer: > 20000 nM

Question: And the GI50 (KG-1; Homo sapiens, read-out: Mean (± SD) GI50)?
Answer: 17.9 ± 7.1 nM

Question: What about the “Mean (SD) maximum inhibition” value (KG-1) of the same molecule?
Answer: 88.3 ± 3.8%

Question: What about the GI50 (MOLM-16; Homo sapiens, MOLM16, read-out: Mean (± SD) GI50) of the same molecule?
Answer: 3.3 nM

Question: What about the “Mean (SD) maximum inhibition” value (MOLM-16) of the same molecule?
Answer: 99.3 ± 0.3%

Question: What about the IC50 [1] of the same molecule?
Answer: 27 nM

Question: And the IC50 [2]?
Answer: 4 nM

Question: And the PIM2 expression [3]?
Answer: increased PIM2 expression

Question: And the IC50 [4]?
Answer: 145 nM

Question: What about the IC50 [5] of the same molecule?
Answer: 70 nM

Question: And the IC50 [6]?
Answer: 76 nM

Question: What about the “pSTAT3(Y705) levels” value (INA-6 cells) of the same molecule?
Answer: negligible effects
